Data on one compound can be found in article PMC8750417, “Intracellular Amplifiers of Reactive Oxygen Species Affecting Mitochondria as Radiosensitizers” (Cancers, 2021).

This experiment deals with A2780 cells. The experiment is described as follows: Mechanism of death of A2780 cells (Annexin A5/PI flow cytometry). The experiment is classed as cell-based, human. The conditions noted are these: A2780, 48 h. As to the method: Figure S54. Effect of prodrugs 1 and 2c (48 h incubation) on the intracellular amount of GSH in Jurkat cells. *: p< 0.05; ns: non-significant (Student’s t test). Detailed experimental description is provided above.
Study of the mechanism of death of A2780 cells induced by prodrug 2c and controls A2780 cells were seeded into 96 well culture plates at the same cell concentration and in the same medium as applied for the above described MTT assay (48 h incubation with the prodrugs). The next day, stock solutions of prodrugs of different concentrations (1 µ L, solvent DMSO, final concentrations in wells were 5, 10 and 30 µ M) or carrier only (DMSO, 1 µ L, final concentration 1 %, v/v) were added to the wells and incubated in the chamber filled with CO 2 (5%). After 48 h supernatants were transferred into 1.5 mL Eppendorf tubes and 100 µ L of DPBS was added to transfer supernatant residue into tube. Trypsin (0.25%, 50 µ L) was then added to well to detach the cells. All supernatants in Eppendorf tubes were combined back into wells. After gently pipetting up and down, 50 µ L of cell solutions was transferred into a new Eppendorf tube and incubated with 200 µ L of staining solution, consisting of Annexin A5-Fitc (5 µ L) and propidium iodide (PI, 330 ng) per 1 mL buffer (conc. 1X). […]

For `CC1(C)OB(c2ccc(COC(=O)N(Cc3cn(Cc4ccc(Cn5cc(Cc6ccccc6)nn5)cc4)nn3)[c-]3cccc3)cc2)OC1(C)C.[Fe+2].c1cc[cH-]c1` [2c], the “mechanism of cell death” value was “mainly via necrosis”.
